From article PMC10452266, “Divergent Pharmacology and Biased Signaling of the Four Melanocortin-4 Receptor Isoforms in Rainbow Trout (Oncorhynchus mykiss)” (Biomolecules, 2023)
Entries after “also recorded” stand apart in the source; their conditions may differ.

Experiments:
[1] = target: T1, hMC4R (Homo sapiens, UniProt P32245); assay: Ligand-binding assay (displacement of 125I-NDP-MSH), hMC4R; details: hMC4R; displacement of 125I-NDP-MSH; transiently transfected HEK293T cells, 48 h after transfection; mean ± SEM of at least three independent experiments; read-out: IC50
T1 construct: expressed in transfected cells; host or cells: HEK293T
T1 sequence (P32245 whole entry): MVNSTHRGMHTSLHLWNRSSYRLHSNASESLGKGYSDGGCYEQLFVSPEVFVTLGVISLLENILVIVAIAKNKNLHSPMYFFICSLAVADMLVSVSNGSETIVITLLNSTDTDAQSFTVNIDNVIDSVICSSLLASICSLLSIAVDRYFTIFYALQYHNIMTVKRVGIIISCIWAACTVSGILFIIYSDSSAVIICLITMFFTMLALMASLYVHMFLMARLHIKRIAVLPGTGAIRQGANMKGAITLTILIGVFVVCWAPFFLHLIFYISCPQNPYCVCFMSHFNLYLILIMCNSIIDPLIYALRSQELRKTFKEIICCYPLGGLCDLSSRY
Protocol: (§1) Cells were plated into 24-well or 6-well plates pre-coated with 0.1% gelatin and transfected with plasmids by the calcium phosphate precipitation method.
A binding assay was conducted as described previously.
Binding assays were used to investigate the binding properties of omMc4rs. […] Data are expressed as % of hMC4R binding ± range from duplicate measurements within one experiment. The curves are representative of at least three independent experiments.

[2] = test system: omMc4ra1; assay: Ligand-binding assay (displacement of 125I-NDP-MSH), omMc4ra1; design: species or system rainbow trout (Oncorhynchus mykiss); details: AgRP 10^-12 to 10^-7 M, MCL0020 and Ipsen 5i 10^-11 to 10^-6 M, ML00253764 10^-10 to 10^-5 M, transfected HEK293T cells
Protocol: (§2) Human Embryonic Kidney (HEK) 293T cells, provided by American Type Culture Collection (Manassas, VA, USA), were cultured as described previously. Cells were plated into 24-well or 6-well plates pre-coated with 0.1% gelatin and transfected with plasmids by the calcium phosphate precipitation method.
(§3) A binding assay was conducted as described previously. […].
(§4) Binding assays were used to investigate the binding properties of omMc4rs. […].  Figure 6 Ligand-binding properties of omMc4rs. […]. Data are expressed as % of hMC4R binding ± range from duplicate measurements within one experiment. The curves are representative of at least three independent experiments.

[3] = test system: omMc4ra2; assay: Ligand-binding assay (displacement of 125I-NDP-MSH), omMc4ra2; design: species or system rainbow trout (Oncorhynchus mykiss); details: AgRP 10^-12 to 10^-7 M, MCL0020 and Ipsen 5i 10^-11 to 10^-6 M, ML00253764 10^-10 to 10^-5 M, transfected HEK293T cells
Protocol: as §2, §3, §4

[4] = target: omMc4rb1; assay: Ligand-binding assay (displacement of 125I-NDP-MSH), omMc4rb1; design: species or system rainbow trout (Oncorhynchus mykiss)
Protocol: as §2, §3, §4

[5] = test system: omMc4rb2; assay: Ligand-binding assay (displacement of 125I-NDP-MSH), omMc4rb2; design: species or system rainbow trout (Oncorhynchus mykiss); details: AgRP 10^-12 to 10^-7 M, MCL0020 and Ipsen 5i 10^-11 to 10^-6 M, ML00253764 10^-10 to 10^-5 M, transfected HEK293T cells
Protocol: as §2, §3, §4

[6] = test system: omMc4ra1; assay: Effect of antagonists on basal cAMP level, omMc4ra1; assay type: cell-based, rainbow trout (Oncorhynchus mykiss); details: 10 nM AgRP, 1 μM MCL0020, 1 μM ML00253764 or 1 μM Ipsen 5i, 1 h, HEK293T, RIA, three independent experiments
Protocol: as §1
(§5) Intracellular cAMP levels were determined according to previous protocol.

[7] = test system: omMc4ra2; assay: Effect of antagonists on basal cAMP level, omMc4ra2; assay type: cell-based, rainbow trout (Oncorhynchus mykiss); details: 10 nM AgRP, 1 μM MCL0020, 1 μM ML00253764 or 1 μM Ipsen 5i, 1 h, HEK293T, RIA, three independent experiments
Protocol: as §1, §5

[8] = test system: omMc4rb1; assay: Effect of antagonists on basal cAMP level, omMc4rb1; assay type: cell-based, rainbow trout (Oncorhynchus mykiss); details: 10 nM AgRP, 1 μM MCL0020, 1 μM ML00253764 or 1 μM Ipsen 5i, 1 h, HEK293T, RIA, three independent experiments
Protocol: as §1, §5

[9] = test system: omMc4rb2; assay: Effect of antagonists on basal cAMP level, omMc4rb2; assay type: cell-based, rainbow trout (Oncorhynchus mykiss); details: for effect on basal cAMP level: 10 nM AgRP, 1 μM MCL0020, 1 μM ML00253764 or 1 μM Ipsen 5i, 1 h, HEK293T, RIA, three independent experiments
Protocol: as §1, §5

[10] = test system: omMc4ra1; assay: ERK1/2 phosphorylation assay, omMc4ra1; assay type: cell-based, rainbow trout (Oncorhynchus mykiss); details: 1 μM α-MSH, 10 nM AgRP, 1 μM MCL0020, 1 μM Ipsen 5i or 1 μM ML00253764, 5 min, HEK293T, Western blot, at least three independent experiments
Protocol: as §2
(§6) HEK293T cells were transfected with omMC4Rs. Twenty-four hours after transfection, cells were washed twice and starved in media without serum for 24 h. […] Rabbit anti-pERK1/2 antibody (Catalog #4370, Cell Signaling, Beverly, MA, USA) and mouse anti-β-tubulin antibody (Developmental Studies Hybridoma Bank, University of Iowa, Iowa City, IA, USA) were used in this study. The bound antibodies were quantified using ImageJ 1.44 software (National Institute of Health, Bethesda, MD, USA).
(§7) Figure 9 ERK1/2 signaling properties of trout Mc4rs. (A) Immunoblots of pERK1/2 in cells expressing omMc4ra1, omMc4ra2, omMc4rb1, or omMc4rb2. HEK293T cells were transiently transfected with omMc4ra1, omMc4ra2, omMc4rb1, omMc4rb2, or empty vector plasmids and were starved overnight 24 h after transfection. […] Western blots were performed as described in Materials and Methods. (B) Densitometry results of basal pERK1/2 levels of omMc4ra1, omMc4ra2, omMc4rb1, and omMc4rb2. (C) Densitometry results of pERK1/2 level of omMc4ra1. (D) Densitometry results of pERK1/2 level of omMc4ra2. […]

[11] = test system: omMc4ra2; assay: ERK1/2 phosphorylation assay, omMc4ra2; assay type: cell-based, rainbow trout (Oncorhynchus mykiss); details: 1 μM α-MSH, 10 nM AgRP, 1 μM MCL0020, 1 μM Ipsen 5i or 1 μM ML00253764, 5 min, HEK293T, Western blot, at least three independent experiments
Protocol: as §2, §6, §7

[12] = test system: omMc4rb1; assay: ERK1/2 phosphorylation assay, omMc4rb1; assay type: cell-based, rainbow trout (Oncorhynchus mykiss); details: for effect on ERK1/2 phosphorylation: 1 μM α-MSH, 10 nM AgRP, 1 μM MCL0020, 1 μM Ipsen 5i or 1 μM ML00253764, 5 min, HEK293T, Western blot, at least three independent experiments; for biased signaling, cAMP versus ERK1/2: concluded from binding, cAMP and pERK1/2 results
Protocol: as §2, §6
Figure 9 ERK1/2 signaling properties of trout Mc4rs. (A) Immunoblots of pERK1/2 in cells expressing omMc4ra1, omMc4ra2, omMc4rb1, or omMc4rb2. HEK293T cells were transiently transfected with omMc4ra1, omMc4ra2, omMc4rb1, omMc4rb2, or empty vector plasmids and were starved overnight 24 h after transfection. […] Western blots were performed as described in Materials and Methods. (B) Densitometry results of basal pERK1/2 levels of omMc4ra1, omMc4ra2, omMc4rb1, and omMc4rb2. (C) Densitometry results of pERK1/2 level of omMc4ra1. (D) Densitometry results of pERK1/2 level of omMc4ra2. (E) Densitometry results of pERK1/2 level of omMc4rb1. (F) Densitometry results of pERK1/2 level of omMc4rb2.

[13] = test system: omMc4rb2; assay: ERK1/2 phosphorylation assay, omMc4rb2; assay type: cell-based, rainbow trout (Oncorhynchus mykiss); details: 1 μM α-MSH, 10 nM AgRP, 1 μM MCL0020, 1 μM Ipsen 5i or 1 μM ML00253764, 5 min, HEK293T, Western blot, at least three independent experiments
Protocol: as §2, §6, §7

[14] = target: T1, hMC4R; details: cited from earlier work; for basal activity of hMC4R and constitutively active mutant hMC4Rs: hMC4R and mutants, ref [1],[28],[48],[51]
[15] = target: T1, hMC4R; details: cited from earlier work
[16] = test system: ciMc4r; details: cited from earlier work
[17] = test system: saMc4r; details: cited from earlier work
[18] = test system: ciMc4r; details: ref [51], cited from earlier work
From the text: (§8) Numerous constitutively active mutants have been reported in several GPCRs, resulting in various human diseases, and inverse agonism will be vital for correcting the diseases caused by activating mutations in GPCRs. The constitutive activity of teleost Mc4r may have important physiological functions.

[19] = test system: saMc4r; details: ref [51], cited from earlier work
From the text: as §8

[20] = test system: ciMc4r; details: ciMc4r (grass carp); ref [48],[51],[81]; cited from earlier work
From the text: (§9) MC4R-mediated ERK1/2 signaling has a crucial role in the modulation of energy homeostasis. Although teleost Mc4rs have much higher basal activities in Gs-cAMP signaling, constitutive activation of ERK1/2 signaling is only observed in topmouth culter Mc4r but not in saMc4r and ciMc4r. […] Our data documented that these three compounds only activated ERK1/2 signaling of omMc4rb1 but not the other three omMc4rs (Figure 9).

[21] = target: T1, hMC4R; details: ref [48],[51],[81]; cited from earlier work
From the text: as §9

[22] = test system: saMc4r; details: saMc4r (spotted scat); ref [48],[51],[81]; cited from earlier work
From the text: as §9

[23] = test system: ricefield eel Mc4r; design: method as in PMID 30075196, PMID 32615281; details: stated as similar to trout Mc4rs, ref [15],[51]; cited from earlier work
[24] = test system: ricefield eel Mc4r; design: method as in PMID 30075196; details: ref [15]; cited from earlier work
[25] = stated as similar to trout Mc4rs, ref [15],[51]

Compound	displacement of 125I-NDP-MSH binding [2]	displacement of 125I-NDP-MSH binding [3]	displacement of 125I-NDP-MSH binding [5]	effect on basal cAMP level [6]	effect on basal cAMP level [7]	effect on basal cAMP level [8]	effect on basal cAMP level [9]	effect on ERK1/2 phosphorylation [10]	effect on ERK1/2 phosphorylation [11]	effect on ERK1/2 phosphorylation [12]	biased signaling, cAMP versus ERK1/2 [12]	effect on ERK1/2 phosphorylation [13]	basal activity of hMC4R and constitutively active mutant hMC4Rs [14]	biased signaling, Gs-cAMP versus ERK1/2 [20]	biased signaling, Gs-cAMP versus ERK1/2 [21]	biased signaling, Gs-cAMP versus ERK1/2 [22]	further results
CC(=O)N[C@H](Cc1ccc2ccccc2c1)C(=O)N[C@@H](CCCNC(=N)N)C(=O)N[C@@H](Cc1ccc2ccccc2c1)C(N)=O [MCL0020, Ac-D-2-Nal-Arg-2-Nal-NH2]	only displaced ^125I-NDP-MSH binding to hMC4R and omMc4rb1	only displaced ^125I-NDP-MSH binding to hMC4R and omMc4rb1	only displaced ^125I-NDP-MSH binding to hMC4R and omMc4rb1	no significant effect	no significant effect	no significant effect	no significant effect	not by ML00253764, Ipsen 5i, or MCL0020	no effect	significantly increased	biased allosteric modulators for omMc4rb1 with selective activation on ERK1/2 signaling	no effect	reduced by inverse agonists	preferred activation on ERK1/2 signaling	preferred activation on ERK1/2 signaling	preferred activation on ERK1/2 signaling	IC50 [1]: 0.0623 ± 0.00482 µM; IC50 ([4]; displacement of 125I-NDP-MSH, transiently transfected HEK293T cells, 48 h after transfection, mean ± SEM of at least three independent experiments): 0.305 ± 0.0662 µM; type of ligand at hMC4R ([14]; hMC4R, ref [51],[56],[79]): neutral antagonist of hMC4R; NDP-MSH displacement ([15]; ref [51]): replaces NDP-MSH binding; NDP-MSH displacement ([16]; ref [51]): replaces NDP-MSH binding; NDP-MSH displacement ([17]; ref [51]): replaces NDP-MSH binding; NDP-MSH-induced cAMP generation [18]: antagonizes NDP-MSH-induced cAMP generation; basal cAMP production [18]: decreases the basal cAMP production of ciMc4r; basal and ligand-induced cAMP levels [19]: no effect on basal and ligand-induced cAMP levels
COc1ccc(Br)cc1CCc1c(F)cccc1C1=NCCN1 [ML00253764, 2-[2-[2-(5-bromo-2-methoxyphenyl)-ethyl]-3-fluorophenyl]-4,5-dihydro-1H-imidazol]	could not displace	could not displace	could not displace	did not cause significant effects on the cAMP levels	did not cause significant effects on the cAMP levels	did not cause significant effects on the cAMP levels	acted as an agonist for omMcrb2 and significantly increasing the cAMP levels; also recorded: did not cause significant effects on the cAMP levels; also recorded: could stimulate cAMP signaling	not by ML00253764, Ipsen 5i, or MCL0020	no effect	significantly increased	biased allosteric modulators for omMc4rb1 with selective activation on ERK1/2 signaling	no effect	reduced by inverse agonists	preferred activation on ERK1/2 signaling	preferred activation on ERK1/2 signaling	preferred activation on ERK1/2 signaling	displacement of 125I-NDP-MSH binding ([4]; AgRP 10^-12 to 10^-7 M, MCL0020 and Ipsen 5i 10^-11 to 10^-6 M, ML00253764 10^-10 to 10^-5 M, transfected HEK293T cells): could not displace; biased signaling, cAMP versus ERK1/2 ([9]; concluded from binding, cAMP and pERK1/2 results): allosteric agonist for omMc4rb2, preferentially activating Gs-cAMP signaling; basal activities of WT and constitutively active MC4R mutants ([14]; WT and mutants, ref [48],[51],[57],[58],[80]): decrease the basal activities; orthosteric binding ([15]; ref [15],[51]): bind to hMC4R orthosterically; orthosteric binding by displacing radiolabeled NDP-MSH [16, 25]: neither ML00253764 nor Ipsen 5i bound; orthosteric binding by displacing radiolabeled NDP-MSH [17, 25]: neither ML00253764 nor Ipsen 5i bound; effect on cAMP levels ([18]; stated as similar to omMc4rs): did not cause significant effects on the cAMP levels; effect on cAMP levels ([19]; stated as similar to omMc4rs): did not cause significant effects on the cAMP levels; orthosteric binding by displacing radiolabeled NDP-MSH [23]: neither ML00253764 nor Ipsen 5i bound; basal cAMP generation [24]: could decrease basal cAMP generation
